Source: paper PMC4020785 (PLoS ONE, 2014)

Assays:
[1] = tested on: HIV-1 subtype B and C; assay: Inhibition of HIV-1 subtype B and C replication, summary over MT-4 cells and human PBMCs; type: cell-based; details: Human immunodeficiency virus 1, PBMC, MT-4 and human PBMCs
Description: (§1) Human PMBCs were incubated with 100 U recombinant IL-2 (Sigma-Aldrich) and 5 µg/mL phytohemagglutinin-P (PHA-P) (Difco) for 5 days at 37°C. MT-4 cells (1×10^6) or treated PBMCs (1.2×10^8) were infected with HIV-1 clone NL-4.3 or ZM247Fv-1 (MOI of 0.001) by spinoculation (1200 g at room temperature for 2 h). Uninfected cells were used as negative control and were also subjected to the spinoculation process. After spinoculation, supernatants were discarded and cells were resuspended in 10 mL of R10. Cells from each condition were then added to wells (96-well plate) containing serial dilutions of each ISD. For MT-4 cells, each dilution was done in sextuplicates and, for PBMCs, in triplicates. Cells were also incubated with different concentrations of ZDV as positive control. After 5 days in culture, Cell Titer Blue was added to each well and cells were incubated for additional 24 h. The median effective concentration for each drug is defined as EC50. In parallel with the infectivity assay, the same cell types were treated with different concentrations of drugs to determine their cytotoxicity, following the protocol described above. Drug concentration that results in a 50% decrease in viable cells is defined as the CC50 for each compound. EC50 was calculated according to Spearman-Karber and therapeutic index was defined by the ratio between CC50 and EC50 [55].

[2] = tested on: HIV-1 clone ZM247Fv-1 (subtype C); assay: HIV-1 ZM247Fv-1 (subtype C) infection of human PBMCs, Cell Titer Blue readout; type: cell-based; details: Human immunodeficiency virus 1, PBMC
Description: as §1
(§2) All statistical analyses were performed using program GraphPism version 6.0. Titrations for TCID50 infectivity were calculated by the Spearman-Karber method. Dose response curves to ISDs with HIV-1 subtype B and C were done using non-linear regression and were fit to the Hill equation.

[3] = tested on: HIV-1 clone ZM247Fv-1 (subtype C); assay: HIV-1 ZM247Fv-1 (subtype C) infection of MT-4 cells, Cell Titer Blue readout; type: cell-based; details: Human immunodeficiency virus 1, MT4
Description: as §1, §2

[4] = tested on: HIV-1 clone NL4.3 (subtype B); assay: HIV-1 NL4.3 (subtype B) infection of MT-4 cells, Cell Titer Blue readout; type: cell-based; details: Human immunodeficiency virus 1, MT4; MT-4 cells, Subtype B (X4); value estimated by extrapolation; read-out: EC50
Description: as §1, §2

[5] = tested on: HIV-1 clone NL4.3 (subtype B); assay: HIV-1 NL4.3 (subtype B) infection of human PBMCs, Cell Titer Blue readout; type: cell-based; details: Human immunodeficiency virus 1; Human PBMC, Subtype B (X4); read-out: EC50
Description: as §1, §2

[6] = tested on: PKC; assay: PKC inhibitors on ING-B-driven receptor downregulation in MT-4 cells; type: cell-based; details: 0.1 µM inhibitor, then 1 µM ING-B 24 h
Description: (§3) For analysis of cell surface marker expression, MT-4 cells and bead-selected CD4+ T cells (described above) were incubated with 1 µM of each compound (ING-A, ING-B, ING-C, prostratin, PMA, and bryostatin-1) at 37°C for 48 h. After incubation, cells were washed with PBS and incubated for 20 min at room temperature with antibodies against CD3-Brilliant Violet 510 (clone OKT3 – Biolegend), CD4-Qdot 655 (clone 53.5 - Life Technologies), CXCR4-PE (clone 1265 - BD Biosciences), CCR5-PerCP-Cy5.5 (clone 3A9 - BD Biosciences), CD69-Pacific Blue (clone FN50 – BD Biosciences), CD38-FITC (clone AT-1 – Stem Cell Technologies), CD25-APC (clone 2A3 – BD Biosciences), HLA-DR-Qdot 605 (clone TÜ36 – Life Technologies) and a marker for annexin V-FITC (Life Technologies). Cells (both MT-4 cells and CD4+ T cells) were initially incubated for 2 h with different PKC inhibitors (GÖ6983, GÖ6976 or RO-31-8220). Then, ING-B, prostratin or PMA at 1 µM or TNF-α at 10 ng/mL were added to each condition and incubation was carried out for 24 h at 37°C. Similar protocol was used for the analysis of PKC inhibitors in J-Lat clones 9.2 and 10.6. GFP expression, surface marker expression and activation marker were evaluated on a LSR Fortessa cytometer (BD Biosciences). Data analysis was performed using FlowJo software (Tree Star).

[7] = tested on: PKC; assay: PKC inhibitors on diterpene-induced GFP expression in J-Lat clones 9.2 and 10.6; type: cell-based
Description: as §3

[8] = tested on: PKC; assay: PKC inhibitors on ING-B-driven receptor downregulation in CD4+ T lymphocytes; type: cell-based, human; details: 0.1 µM inhibitor in the presence of 1 µM ING-B
Description: as §3

[9] = tested on: HIV; set-up: method as in PMID 8787923; details: MT-4 cells; cited from earlier work
[10] = tested on: HIV LTR in J-Lat clones; assay: LTR-driven GFP expression in J-Lat clones; type: cell-based, HIV-1; details: J-Lat clones 9.2 and 10.6, 48 h, all concentrations tested
Description: J-Lat cells are Jurkat cells stably transfected by an HIV genome whose nef sequence was replaced by the GFP gene. Also, a frameshift mutation was introduced to the env gene to prevent virus spread. […] To test the ISDs, a million cells of each clone were treated with different concentrations of each compound (ING-A, ING-B, ING-C, prostratin and PMA) at 37°C. TNF-α (10 ng/mL) was used as a positive control. After 48 h, cells were collected, washed with saline solution (PBS) and GFP expression was evaluated in a FACScalibur cytometer (BD Biosciences). Data were analyzed with Cell Quest Pro software (BD Biosciences).

[11] = tested on: CD4+ T lymphocytes; assay: Activation markers CD25, CD38, HLA-DR, CD69 on CD4+ T lymphocytes (cytometry); type: cell-based, human; details: 1 µM
Description: For analysis of cell surface marker expression, MT-4 cells and bead-selected CD4+ T cells (described above) were incubated with 1 µM of each compound (ING-A, ING-B, ING-C, prostratin, PMA, and bryostatin-1) at 37°C for 48 h. […] Cells (both MT-4 cells and CD4+ T cells) were initially incubated for 2 h with different PKC inhibitors (GÖ6983, GÖ6976 or RO-31-8220). Then, ING-B, prostratin or PMA at 1 µM or TNF-α at 10 ng/mL were added to each condition and incubation was carried out for 24 h at 37°C. […] GFP expression, surface marker expression and activation marker were evaluated on a LSR Fortessa cytometer (BD Biosciences). Data analysis was performed using FlowJo software (Tree Star).

[12] = tested on: CD4, CXCR4, CCR5 on MT-4 cells; assay: Surface CD4, CXCR4, CCR5 expression in MT-4 cells (cytometry); type: cell-based; details: 1 µM
Description: as §3

[13] = tested on: CD4, CXCR4, CCR5 on CD4+ T lymphocytes; assay: Surface CD4, CXCR4, CCR5 expression in CD4+ T lymphocytes (cytometry); type: cell-based, human; details: CD4+ lymphocytes, 1 µM
Description: as §3

Compound: Cc1cn([C@H]2C[C@H](N=[N+]=[N-])[C@@H](CO)O2)c(=O)[nH]c1=O [ZDV, Zidovudine, reference compound]
- EC50 [1]: 4 to 8 nM
- EC50 [2]: 8 nM
- EC50 [3]: 5 nM
- EC50 [4]: 4 nM
- EC50 [5]: 7 nM

Compound: Cn1c2ccccc2c2c3c(c4c5ccccc5n(CCC#N)c4c21)C(=O)NC3 [GÖ6976]
- effect on ING-B-driven receptor downregulation [6]: little effect on blocking receptor downregulation
- effect on ISD induction of GFP expression ([7]; 0.1 µM inhibitor): little effect

Compound: Cn1cc(C2=C(c3cn(CCCSC(=N)N)c4ccccc34)C(=O)NC2=O)c2ccccc21 [RO-31-8220]
- overexpression of CD4 and CCR5 compared to untreated control [8]: up to 2.5 fold
- effect on ING-B-driven receptor downregulation [6]: not able to downregulate the expression of CD4 and CXCR4
- reduction of ING-B-driven GFP expression ([7]; discussion statement): 75%
- GFP expression reduced to ([7]; pre-incubation with 0.1 µM inhibitor, response to ISDs, prostratin and PMA): 75%

Compound: CC(=O)OCC1=C[C@@H]2C(=O)[C@]3(C=C(C)[C@H](OC(C)=O)[C@@]3(O)[C@@H]1OC(C)=O)[C@H](C)C[C@@H]1[C@H]2C1(C)C [ITA, Ingenol 3,5,20-triacetate]
- concentration inhibiting HIV replication (as low as) [9]: ≥ 0.05 µM

Compound: CCCCCCCCCCCCCC(=O)O[C@@H]1[C@@H](C)[C@@]2(O)[C@@H](C=C(CO)C[C@]3(O)C(=O)C(C)=C[C@@H]23)[C@@H]2C(C)(C)[C@]12OC(C)=O [PMA, phorbol 13-myristate acetate]
- levels of GFP expression, rank order [10]: PMA = ING-B > ING-A = ING-C > prostratin
- CD25 surface expression [11]: upregulated
- CD69 and CD38 surface expression [11]: more intensely
- HLA-DR surface expression [11]: upregulated by ISDs and PMA
- surface CD4 and CXCR4 expression, of that in the control condition [12]: ≥ 50%
- levels of CD4 expression [13]: severely diminished
